Drawing on US8003785B2 (Takeda Pharmaceutical Company Limited, priority 2008, dated 2011), this text covers IC50 for 25 molecules.

One assay deals with T1, PLK1 (Homo sapiens, UniProt P53350).
T1 construct: Full-length, active GST-PLK1 is purified from Sf9 insect cells; made in house; host or cells: Sf9 insect cells
T1 sequence (P53350 whole entry): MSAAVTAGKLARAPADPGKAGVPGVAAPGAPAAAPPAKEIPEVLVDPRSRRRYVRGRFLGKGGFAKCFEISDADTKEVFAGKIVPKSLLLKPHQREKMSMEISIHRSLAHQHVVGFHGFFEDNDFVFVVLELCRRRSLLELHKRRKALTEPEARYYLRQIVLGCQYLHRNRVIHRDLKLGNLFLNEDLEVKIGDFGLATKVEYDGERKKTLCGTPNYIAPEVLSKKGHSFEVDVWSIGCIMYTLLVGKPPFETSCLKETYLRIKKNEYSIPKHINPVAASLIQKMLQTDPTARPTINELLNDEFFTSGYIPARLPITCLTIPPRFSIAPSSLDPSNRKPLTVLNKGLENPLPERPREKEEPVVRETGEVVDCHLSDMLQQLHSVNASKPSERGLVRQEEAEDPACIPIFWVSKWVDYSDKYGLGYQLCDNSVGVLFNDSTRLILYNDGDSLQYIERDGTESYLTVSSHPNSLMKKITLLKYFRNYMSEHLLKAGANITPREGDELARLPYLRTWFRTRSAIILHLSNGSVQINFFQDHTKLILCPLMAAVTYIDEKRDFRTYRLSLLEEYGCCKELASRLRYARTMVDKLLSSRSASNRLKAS
Kind of assay: Biochemical Characterization Assay: HTRF kinase assay, GST-PLK1 phosphorylation of GST-p53. Conditions: GST-PLK1, GST-p53 substrate. In outline: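 HTRF read-out of p53 phosphorylation: after EDTA stop, anti-phospho-p53 antibody bound 30 min at 37 °C in HEPES pH 7 buffer, with Eu-anti-rabbit/APC-anti-GST detection. Kinase step used full-length Sf9-expressed GST-PLK1 (3 ug/mL) and E. coli GST-p53 substrate, 35 min at 37 °C.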
Turning to `COc1cc(C(N)=O)ccc1Nc1ncc2c(n1)N(CCCc1ccccc1)CC(F)(F)C(=O)N2C` [Example I-283, 4-[7,7-difluoro-5-methyl-6-oxo-9-(3-phenyl-propyl)-6,7,8,9-tetrahydro-5H-pyrimido[4,5-b][1,4]diazepin-2-ylamino]-3-methoxy-benzamide], the IC50 lay within 51 to 500 nM.

As for `CN1CCC(NC(=O)c2ccc(Nc3ncc4c(n3)N(C3CCCC3)CC(F)(F)C(=O)N4C)c(F)c2F)CC1` [Example I-243], the IC50 was in the range of 1 to 50 nM.

The molecule `CCCN1C(=O)C(F)(F)CN(C2CCCC2)c2nc(Nc3ccc(C(N)=O)cc3OC)ncc21` [Example I-163, 4-(9-cyclopentyl-7,7-difluoro-6-oxo-5-propyl-6,7,8,9-tetrahydro-5H-pyrimido[4,5-b][1,4]diazepin-2-ylamino)-3-methoxy-benzamide] returned an IC50 of 500 to 5000 nM.

Consider `COc1cc(C(=O)NC2CCN(C)CC2)ccc1Nc1ncc2c(n1)N(C(C)C)CC(F)(F)C(=O)N2C` [Example I-293, 4-(7,7-difluoro-9-isopropyl-5-methyl-6-oxo-6,7,8,9-tetrahydro-5H-pyrimido[4,5-b][1,4]diazepin-2-ylamino)-3-methoxy-N-(1-methyl-piperidin-4-yl)-benzamide], for which the IC50 lay in the range of 1 to 50 nM.

`CN1CCC(NC(=O)c2ccc(Nc3ncc4c(n3)N(C3CCCC3)CC(F)(F)C(=O)N4C)c(F)c2)CC1` [Example I-183, 4-(9-cyclopentyl-7,7-difluoro-5-methyl-6-oxo-6,7,8,9-tetrahydro-5H-pyrimido[4,5-b][1,4]diazepin-2-ylamino)-3-fluoro-N-(1-methyl-piperidin-4-yl)-benzamide] had an IC50 of 1 to 50 nM.

Molecule `COc1cc(C(=O)NCCN(C)C)c(F)cc1Nc1ncc2c(n1)N(C1CCCC1)CC(F)(F)C(=O)N2C` [Example I-174, 4-(9-cyclopentyl-7,7-difluoro-5-methyl-6-oxo-6,7,8,9-tetra-hydro-5H-pyrimido[4,5-b][1,4]diazepin-2-ylamino)-N-(3-dimethylamino-ethyl)-2-fluoro-5-methoxy-benzamide] came in with an IC50 of 1 to 50 nM.

Molecule `COc1cc(C(=O)NC2CCN(C)CC2)ccc1Nc1ncc2c(n1)N(CCOc1ccccc1)CC(F)(F)C(=O)N2C` [Example I-304, 4-[7,7-difluoro-5-methyl-6-oxo-9-(2-phenoxy-ethyl)-6,7,8,9-tetrahydro-5H-pyrimido[4,5-b][1,4]diazepin-2-ylamino]-3-methoxy-N-(1-methyl-piperidin-4-yl)-benzamide] displayed a half-maximal inhibitory concentration (IC50) of 51 to 500 nM.

Turning to `COc1cc(C(=O)NCCCN(C)C)ccc1Nc1ncc2c(n1)N(C(C)C)CC(F)(F)C(=O)N2C` [Example I-296, 4-(7,7-difluoro-9-isopropyl-5-methyl-6-oxo-6,7,8,9-tetrahydro-5H-pyrimido[4,5-b][1,4]diazepin-2-ylamino)-N-(3-dimethylamino-propyl)-3-methoxy-benzamide], the IC50 fell in the range of 1 to 50 nM.

In turn, `CN(C)CCNC(=O)c1ccc(Nc2ncc3c(n2)N(C2CCCCC2)CC(F)(F)C(=O)N3C)cc1` [Example I-264, 4-(9-cyclohexyl-7,7-difluoro-5-methyl-6-oxo-6,7,8,9-tetrahydro-5H-pyrimido[4,5-b][1,4]diazepin-2-ylamino)-N-(2-dimethylamino-ethyl)-benzamide] came in with a half-inhibitory concentration (IC50) of 1 to 50 nM.

Turning to `CN1C(=O)C(F)(F)CN(C2CCCC2)c2nc(Nc3cc(F)c(C(N)=O)cc3F)ncc21` [Example I-241, 4-(9-cyclopentyl-7,7-difluoro-5-methyl-6-oxo-6,7,8,9-tetrahydro-5H-pyrimido[4,5-b][1,4]diazepin-2-ylamino)-2,5-difluoro-benzamide], the IC50 fell in the range of 1 to 50 nM.

`CCCN1C(=O)C(F)(F)CN(C2CCCC2)c2nc(Nc3ccc(C(=O)NC4CCN(C)CC4)cc3OC)ncc21` [Example I-165, 4-(9-cyclopentyl-7,7-difluoro-6-oxo-5-propyl-6,7,8,9-tetrahydro-5H-pyrimido[4,5-b][1,4]diazepin-2-ylamino)-3-methoxy-N-(1-methyl-piperidin-4-yl)-benzamide]: the IC50 was in the range of 51 to 500 nM.

As to `Cc1cc(C(=O)NC2CCNCC2)ccc1Nc1ncc2c(n1)N(C1CCCC1)CC(F)(F)C(=O)N2C` [Example I-192, 4-(9-cyclopentyl-7,7-difluoro-5-methyl-6-oxo-6,7,8,9-tetrahydro-5H-pyrimido[4,5-b][1,4]diazepin-2-ylamino)-3-methyl-N-piperidin-4-yl-benzamide], the IC50 was in the range of 1 to 50 nM.

The same assay, now with this note: GST-PLK1, GST-p53 substrate, ATP.
In the case of `COc1cc(C(=O)N[C@@H]2CCN(C(=O)OCc3ccccc3)C[C@H]2OC)ccc1Nc1ncc2c(n1)N(C1CCCC1)CC(F)(F)C(=O)N2C` (racemic) [Example I-55, rac-(3R,4R)-4-[4-(9-cyclopentyl-7,7-difluoro-5-methyl-6-oxo-6,7,8,9-tetrahydro-5H-pyrimido[4,5-b][1,4]diazepin-2-ylamino)-3-methoxy-benzoylamino]-3-methoxy-piperidine-1-carboxylic acid benzyl ester], the IC50 was 51 to 500 nM.

On to `COc1cc(C(=O)NCc2ccoc2)ccc1Nc1ncc2c(n1)N(C1CCCC1)CC(F)(F)C(=O)N2C` [Example I-34, 4-(9-cyclopentyl-7,7-difluoro-5-methyl-6-oxo-6,7,8,9-tetrahydro-5H-pyrimido[4,5-b][1,4]diazepin-2-ylamino)-N-furan-3-ylmethyl-3-methoxy-benzamide], for which the IC50 fell in the range of 1 to 50 nM.

With `COc1cc(C(=O)N[C@@H]2CNC[C@H]2O)ccc1Nc1ncc2c(n1)N(C1CCCC1)CC(F)(F)C(=O)N2C` [Example I-104, 4-(9-cyclopentyl-7,7-difluoro-5-methyl-6-oxo-6,7,8,9-tetrahydro-5H-pyrimido[4,5-b][1,4]diazepin-2-ylamino)-N-((3R,4R)-4-hydroxy-pyrrolidin-3-yl)-3-methoxy-benzamide], the IC50 lay within 1 to 50 nM.

Molecule `COc1cc(C(=O)NCC(O)CN2CCNCC2)ccc1Nc1ncc2c(n1)N(C1CCCC1)CC(F)(F)C(=O)N2C` (stereo not shown) [Example I-121, 4-(9-cyclopentyl-7,7-difluoro-5-methyl-6-oxo-6,7,8,9-tetrahydro-5H-pyrimido[4,5-b][1,4]diazepin-2-ylamino)-N-(2-hydroxy-3-piperazin-1-yl-propyl)-3-methoxy-benzamide] yielded an IC50 of 1 to 50 nM.

In the case of `COc1cc(C(=O)NCCC2CCCN2C)ccc1Nc1ncc2c(n1)N(C1CCCC1)CC(F)(F)C(=O)N2C` (stereo not shown) [Example I-112, 4-(9-cyclopentyl-7,7-difluoro-5-methyl-6-oxo-6,7,8,9-tetrahydro-5H-pyrimido[4,5-b][1,4]diazepin-2-ylamino)-3-methoxy-N-[2-(1-methyl-pyrrolidin-2-yl)-ethyl]-benzamide], the IC50 is 1 to 50 nM.

For the molecule `COc1cc(C(=O)N2CCCCC2)ccc1Nc1ncc2c(n1)N(C1CCCC1)CC(F)(F)C(=O)N2C` [Example I-126, 9-cyclopentyl-7,7-difluoro-2-[2-methoxy-4-(piperidine-1-carbonyl)-phenylamino]-5-methyl-5,7,8,9-tetrahydro-pyrimido[4,5-b][1,4]diazepin-6-one], the IC50 was in the range of 51 to 500 nM.

On to `COc1cc(C(=O)NC(C)C)ccc1Nc1ncc2c(n1)N(C1CCCC1)CC(F)(F)C(=O)N2C` [Example I-25, 4-(9-cyclopentyl-7,7-difluoro-5-methyl-6-oxo-6,7,8,9-tetrahydro-5H-pyrimido[4,5-b][1,4]diazepin-2-ylamino)-N-isopropyl-3-methoxy-benzamide], for which the IC50 lay in the range of 1 to 50 nM.

For `COc1cc(C(=O)NC2CCN(CCF)CC2)ccc1Nc1ncc2c(n1)N(C1CCCC1)CC(F)(F)C(=O)N2C` [Example I-75, 4-(9-cyclopentyl-7,7-difluoro-5-methyl-6-oxo-6,7,8,9-tetrahydro-5H-pyrimido[4,5-b][1,4]diazepin-2-ylamino)-N-[1-(2-fluoro-ethyl)-piperidin-4-yl]-3-methoxy-benzamide], the IC50 lay within 1 to 50 nM.

`COc1cc(C(=O)NCC2CCNC2)ccc1Nc1ncc2c(n1)N(C1CCCC1)CC(F)(F)C(=O)N2C` (stereo not shown) [Example I-93, 4-(9-cyclopentyl-7,7-difluoro-5-methyl-6-oxo-6,7,8,9-tetrahydro-5H-pyrimido[4,5b][1,4]diazepin-2-ylamino)-3-methoxy-N-pyrrolidin-3-ylmethyl-benzamide] had an IC50 of 1 to 50 nM.

`COc1cc(C(=O)NC2CCN(C(=O)OCC3c4ccccc4-c4ccccc43)CC2)ccc1Nc1ncc2c(n1)N(C1CCCC1)CC(F)(F)C(=O)N2C` [Example I-70, 4-[4-(9-cyclopentyl-7,7-difluoro-5-methyl-6-oxo-6,7,8,9-tetrahydro-5H-pyrimido[4,5-b][1,4]diazepin-2-ylamino)-3-methoxy-benzoylamino]-piperidine-1-carboxylic acid 9H-fluoren-9-ylmethyl ester] showed an IC50 of 1 to 50 nM.

For the molecule `COCCNC(=O)c1ccc(Nc2ncc3c(n2)N(C2CCCC2)CC(F)(F)C(=O)N3C)c(OC)c1` [Example I-28, 4-(9-cyclopentyl-7,7-difluoro-5-methyl-6-oxo-6,7,8,9-tetrahydro-5H-pyrimido[4,5-b][1,4]diazepin-2-ylamino)-3-methoxy-N-(2-methoxy-ethyl)-benzamide], the IC50 fell in the range of 1 to 50 nM.

The molecule `COc1cc(C(=O)N[C@H]2CC[C@@H](O)CC2)ccc1Nc1ncc2c(n1)N(C1CCCC1)CC(F)(F)C(=O)N2C` [Example I-68, cis-4-(9-cyclopentyl-7,7-difluoro-5-methyl-6-oxo-6,7,8,9-tetrahydro-5H-pyrimido[4,5-b][1,4]diazepin-2-ylamino)-N-(4-hydroxy-cyclohexyl)-3-methoxy-benzamide] had a concentration for half-maximal inhibition (IC50) of 1 to 50 nM.

On to `COc1cc(C(=O)N[C@@H]2CCN(C(=O)OC(C)(C)C)C[C@@H]2OC)ccc1Nc1ncc2c(n1)N(C1CCCC1)CC(F)(F)C(=O)N2C` (racemic) [Example I-56, rac-(3S,4R)-4-[4-(9-cyclopentyl-7,7-difluoro-5-methyl-6-oxo-6,7,8,9-tetrahydro-5H-pyrimido[4,5-b][1,4]diazepin-2-ylamino)-3-methoxy-benzoylamino]-3-methoxy-piperidine-1-carboxylic acid tert-butyl ester], for which the IC50 fell in the range of 1 to 50 nM.

A word on the IC50: it is the concentration needed to halve the response being measured.
